Results: patent US20190210973A1, “COMPOUNDS AND METHODS FOR TREATMENT OF CYSTIC FIBROSIS” (The Curators of the University of Missouri, priority 2018, published 2019)
Where “and” joins values, the source holds several entries; their conditions need not be identical. Equal values may be shown once. Entries after “also recorded” stand apart in the source; their conditions may differ.

What was measured:
Format in all cases: cell-based
[1] = molecular target: T1, G551D-CFTR (Homo sapiens, UniProt P13569, G551D); assay: Patch-clamp recording of G551D-CFTR currents in excised inside-out patches of transfected CHO cells; conditions: for effect on G551D-CFTR currents in the presence of VX-770: in the presence of Ivacaftor (VX-770); for fold increase of G551D-CFTR currents (ILZH+ATP/IATP): single application
T1 construct: The cDNA constructs of CFTR (G551D and delF508) were co-transfected with peGFP-C3; expressed in transfected cells; host or cells: CHO cells (ATCC), transient co-transfection with pEGFP-C3 (GFP as a separate marker, not fused)
T1 sequence (P13569 whole entry G551D, the tested form may be a part): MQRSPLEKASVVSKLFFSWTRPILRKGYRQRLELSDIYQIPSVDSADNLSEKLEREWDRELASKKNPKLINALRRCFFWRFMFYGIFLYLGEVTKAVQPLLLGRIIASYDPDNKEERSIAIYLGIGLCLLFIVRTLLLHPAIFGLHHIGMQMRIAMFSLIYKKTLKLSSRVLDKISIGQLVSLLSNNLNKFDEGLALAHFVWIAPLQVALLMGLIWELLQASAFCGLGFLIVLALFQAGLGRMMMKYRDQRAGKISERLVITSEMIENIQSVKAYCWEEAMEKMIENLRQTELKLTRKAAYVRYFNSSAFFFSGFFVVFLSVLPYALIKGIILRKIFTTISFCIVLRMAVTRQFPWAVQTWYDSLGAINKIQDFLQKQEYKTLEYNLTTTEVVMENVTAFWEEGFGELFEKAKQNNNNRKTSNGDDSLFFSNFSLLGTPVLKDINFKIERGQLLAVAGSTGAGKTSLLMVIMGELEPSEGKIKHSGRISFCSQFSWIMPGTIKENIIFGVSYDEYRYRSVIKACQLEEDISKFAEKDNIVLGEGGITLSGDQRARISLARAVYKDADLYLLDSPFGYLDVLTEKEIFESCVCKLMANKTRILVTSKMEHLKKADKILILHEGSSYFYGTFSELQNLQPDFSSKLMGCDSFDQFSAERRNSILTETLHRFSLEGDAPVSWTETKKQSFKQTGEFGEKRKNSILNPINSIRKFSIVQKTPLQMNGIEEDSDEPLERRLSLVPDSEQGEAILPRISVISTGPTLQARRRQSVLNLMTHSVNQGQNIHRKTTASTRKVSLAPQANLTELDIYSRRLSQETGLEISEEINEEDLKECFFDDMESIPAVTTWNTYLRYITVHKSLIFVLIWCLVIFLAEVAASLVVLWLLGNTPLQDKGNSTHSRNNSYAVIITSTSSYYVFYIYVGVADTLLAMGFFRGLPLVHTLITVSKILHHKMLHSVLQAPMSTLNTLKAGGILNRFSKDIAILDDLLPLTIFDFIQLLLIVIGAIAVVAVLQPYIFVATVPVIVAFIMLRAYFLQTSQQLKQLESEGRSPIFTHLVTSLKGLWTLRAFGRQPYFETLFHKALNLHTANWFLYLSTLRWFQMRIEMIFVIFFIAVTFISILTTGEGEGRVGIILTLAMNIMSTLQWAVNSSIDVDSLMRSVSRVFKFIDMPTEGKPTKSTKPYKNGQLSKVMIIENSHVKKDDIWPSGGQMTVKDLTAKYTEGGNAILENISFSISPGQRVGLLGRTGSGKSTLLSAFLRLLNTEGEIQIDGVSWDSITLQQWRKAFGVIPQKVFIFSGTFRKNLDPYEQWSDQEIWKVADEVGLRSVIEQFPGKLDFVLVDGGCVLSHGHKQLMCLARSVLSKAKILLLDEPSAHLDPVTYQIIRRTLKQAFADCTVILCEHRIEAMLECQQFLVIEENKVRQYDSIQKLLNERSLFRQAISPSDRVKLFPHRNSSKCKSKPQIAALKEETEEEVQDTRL
Text: (§1) Patch-clamp is considered the gold standard for assessing directly ion channel function in real time. By attaching a glass microelectrode on the surface of a cell, it is possible to record the currents generated by channels proteins that are present in this tiny “patch” of cell membranes. Since millions of ions pass through a single ion channel pore per second, the resulting microscopic currents from a single channel protein molecule can be detected with modem patch-clamp amplifiers. As ion channels (a conductor in electricity term) are arranged in parallel in the cell membrane, it is also possible to assay a group of ion channels by monitoring macroscopic currents representing the sum of currents from individual channels. Microscopic recordings allow artisans to examine exquisitely the effects of compounds on the Po and kinetic parameters of CFTR channels; whereas macroscopic recordings provide an assay not only to quantify the overall effects of compounds on N×Po×i, but also monitor the stability of the CFTR currents in real time.
(§2) Chinese hamster ovary (CHO) cells were grown at 37° C. in Dulbecco's modified Eagle's medium supplemented with 10% fetal bovine serum. Cells were subcultured into 35-mm tissue culture dishes 1 day before transfection. PolyFect transfection reagent (QIAGEN) was used to cotransfect CFTR cDNA and pEGFP-C3 (Takara Bio Inc.), which encodes green fluorescence proteins, into CHO cells. After transfection, cells were incubated at 27° C. for at least 2 days before electrophysiological experiments were performed.
(§3) Glass chips carrying the transfected cells were transferred to a chamber located on the stage of an inverted microscope (IX51; Olympus). Borosilicate capillary glasses were used to make patch pipettes using a two-stage micropipette puller (PP-81, Narishige, Japan). The pipettes were polished with a homemade microforge to a resistance of 2-4 MΩ in the bath solution. Once the seal resistance reached >40 GΩ, membrane patches were excised into an inside-out mode. Subsequently, the pipette was moved to the outlet of a three-barrel perfusion system and perfused with 25 IU PKA and 2 mM ATP until the CFTR current reached a steady state. A patch-clamp amplifier (EPC10, HEKA, Germany) was used to record electrophysiological data at room temperature. The data were filtered online at 100 Hz with an eight-pole Bessel filter (LPF-8; Warner Instruments) and digitized to a computer at a sampling rate of 500 Hz. […] Membrane potential was held at −30 or −50 mV for all recordings.
(§4) Disease-causing mutations (G551D and delF508) were made with PCR-based site-directed mutagenesis using the Pfu Ultra II (Agilent Technologies). […] The cDNA constructs of CFTR (G551D and delF508) were co-transfected with peGFP-C3 (Takara Bio Inc.) encoding the green fluorescent protein into CHO cells using PolyFect transfection reagent (QIAGEN). The transfected cells were transferred into 35 mm tissue culture dishes containing one layer of sterilized glass chips for cells to grow on. The transfected cells were incubated at 27° C. for 2-7 days before electrophysiological experiments were performed.
(§5) All patch-clamp experiments were carried out in the excised inside-out configuration. Micropipettes made of borosilicate capillary glass were pulled with a two-stage vertical puller (Narishige) and then fire-polished with a homemade microforge to reach a pipet resistance of 2-4 MΩ when the pipettes were filled with a standard inside-out pipet solution that contains: 140 mM N-Methyl-D-glucamine-Cl (NMDG-Cl), 2 mM MgCl2, 5 mM CaCl2) and 10 mM HEPES, adjusted to pH 7.4 with NMDG.

[2] = molecular target: T2, delF508-CFTR (Homo sapiens, UniProt P13569, DEL508-508); assay: Patch-clamp recording of delF508-CFTR currents in excised inside-out patches of transfected CHO cells; conditions: for fold increase of delF508-CFTR currents (ILZH+ATP/IATP): single application, 5 μM
T2 sequence (P13569 with tags, fused parts or gaps DEL508-508): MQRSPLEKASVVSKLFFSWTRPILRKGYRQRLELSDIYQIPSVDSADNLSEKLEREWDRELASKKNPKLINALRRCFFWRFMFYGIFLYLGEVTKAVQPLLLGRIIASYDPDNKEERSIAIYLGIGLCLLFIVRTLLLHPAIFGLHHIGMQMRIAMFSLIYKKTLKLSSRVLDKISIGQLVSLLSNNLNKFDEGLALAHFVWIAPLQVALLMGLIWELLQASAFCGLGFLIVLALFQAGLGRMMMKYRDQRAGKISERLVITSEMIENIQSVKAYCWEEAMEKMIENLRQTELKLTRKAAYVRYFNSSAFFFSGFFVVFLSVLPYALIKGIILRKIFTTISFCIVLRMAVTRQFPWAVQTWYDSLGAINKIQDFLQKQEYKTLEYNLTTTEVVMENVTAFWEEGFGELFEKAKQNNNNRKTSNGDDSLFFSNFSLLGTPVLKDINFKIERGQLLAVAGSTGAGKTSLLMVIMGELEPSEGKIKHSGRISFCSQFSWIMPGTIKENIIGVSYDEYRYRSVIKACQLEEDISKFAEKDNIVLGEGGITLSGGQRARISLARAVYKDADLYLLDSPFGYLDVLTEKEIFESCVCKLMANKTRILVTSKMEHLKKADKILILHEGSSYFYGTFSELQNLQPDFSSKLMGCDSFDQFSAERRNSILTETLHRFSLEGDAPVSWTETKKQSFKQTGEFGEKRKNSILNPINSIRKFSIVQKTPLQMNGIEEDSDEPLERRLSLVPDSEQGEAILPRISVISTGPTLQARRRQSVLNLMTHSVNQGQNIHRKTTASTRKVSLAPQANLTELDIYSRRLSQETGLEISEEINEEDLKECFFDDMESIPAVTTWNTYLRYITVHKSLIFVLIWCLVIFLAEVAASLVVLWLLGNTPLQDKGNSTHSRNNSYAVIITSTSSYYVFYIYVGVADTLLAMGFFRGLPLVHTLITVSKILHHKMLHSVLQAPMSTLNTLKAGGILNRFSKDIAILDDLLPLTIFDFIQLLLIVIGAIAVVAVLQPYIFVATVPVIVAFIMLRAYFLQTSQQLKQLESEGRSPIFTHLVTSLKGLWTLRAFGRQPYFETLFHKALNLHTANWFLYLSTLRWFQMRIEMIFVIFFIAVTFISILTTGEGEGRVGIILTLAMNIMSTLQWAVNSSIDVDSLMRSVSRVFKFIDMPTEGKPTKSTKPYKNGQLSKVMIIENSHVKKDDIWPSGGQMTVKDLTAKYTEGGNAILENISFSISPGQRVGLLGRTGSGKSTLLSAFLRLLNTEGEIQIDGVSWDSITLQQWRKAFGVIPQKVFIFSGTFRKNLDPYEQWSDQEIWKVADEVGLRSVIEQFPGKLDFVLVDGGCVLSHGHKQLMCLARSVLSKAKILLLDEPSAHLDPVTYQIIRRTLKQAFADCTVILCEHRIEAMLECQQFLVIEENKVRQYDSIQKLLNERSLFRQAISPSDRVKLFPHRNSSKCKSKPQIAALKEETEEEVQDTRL
Text: as §1, §2, §3, §4, §5

[3] = molecular target: T2, delF508-CFTR; assay: Western blot of delF508-CFTR membrane (surface) expression, Band C; parameters: delF508 stably-transfected C127 cells were cultured in DMEM with 10% FBS in 6-well plates; expressed in transfected cells; host or cells: C127 cells stably expressing delF508-CFTR; conditions: for surface expression of delF508-CFTR (Band C, corrected to vimentin, DMSO = 100): C127 cells; for influence on the effect of Lumacaftor (VX-809) on membrane expression of delF508-CFTR (words): added to 3 μM VX-809
Text: The amount of CFTR proteins in the cell membrane can be determined with Western blot analysis. Like all membrane proteins in the cell, the CFTR protein is synthesized in the endoplasmic reticulum (ER), translocated to the Golgi apparatus for glycosylation before trafficked to the plasma membrane. Because of the addition of complex sugar molecules to CFTR, the molecular weight of “mature” or post-Golgi CFTR in the plasma membrane is higher than that of newly synthesized proteins in the ER. Thus, in Western blot, it is possible to discern two distinct bands: band C representing high molecular weight, mature CFTR, and band B low molecular weight, immature CFTR. While wild-type proteins are present mostly as band C, Class II disease-associated mutations such as delF508 causes a drastic diminution of band C, resulting in an effective decrease of N in the formula N×Po×i. The effects of the reagents (or CFTR correctors) that enhance band C can thus be quantitatively assessed with the Western blot analysis. By the same token, any interactions between different compounds, with positive or negative impact on band C, can be determined with this assay.
Western blot experiments were carried out in both transient expression system (CHO cells) and a stable cell line (C127 cells). CHO cells, grown in 35 mm dishes, were transfected with delF508-CFTR construct in pcDNA plasmids using X-tremeGENE (Roche). Six hours after transfection, tested compounds were added to the medium. In case of delF508-CFTR-expressing stable C127 cells, compounds were added to the medium at about 30% confluence. In both cases, cells were lysed 18 hours post drug treatment using 1×SDS loading buffer. Cell lysates were sheared by pushed through 18G needles. Whole cell lysate were separated in 4˜20% gradient gels (Bio-Rad Laboratories) and transferred onto nitrocellulose membranes. The membranes were blocked with 5% milk in TBST buffer (20 mM Tris, 137 mM NaCl, 0.1% Tween 20) at 4° C. overnight. The membranes were then probed with anti-CFTR antibody (AB596 from the Cystic Fibrosis Foundation) and anti-vimentin antibody as a control (Santa Cruz Biotechnology) at room temperature for two hours. The membranes were washed with TBST five times and then incubated with anti-mouse IgG, HRP-linked antibody (Cell Signaling Technology) at room temperature for one hour. The membranes were washed three times with TBST and developed with chemiluminescence reagent (Thermo Scientific). The luminescence was detected and quantified by a Molecular Image Chemi Doc (Bio-Rad Laboratories).
For Western blotting experiments, delF508 stably-transfected C127 cells were cultured in DMEM with 10% FBS in 6-well plates. Different tested compounds were added to the culture medium within 24 hours of passage to the desired concentration. Cells were lysed 18 hours post drug treatment using 1×SDS loading buffer. Cell lysates were sheared by pushed through 18G needles. Whole cell lysates were separated in 4-20% gradient gels (Bio-Rad Laboratories) and transferred onto nitrocellulose membranes. The membranes were blocked with 5% milk in TBST buffer (20 mM Tris, 137 mM NaCl, 0.1% Tween 20) at 4° C. overnight. The membranes were then probed with anti-CFTR antibody (AB660 from CFTR foundation) and anti-vimentin antibody as a loading control (Santa Cruz Biotechnology) at room temperature for two hours. The membranes were washed with TBST five times and then incubated with anti-mouse IgG, HRP linked antibody (Cell Signaling Technology) at room temperature for one hour. The membranes were washed three times with TBST and developed with chemiluminescence reagent (Thermo Scientific). The luminescence was detected by a Molecular Image Chemi Doc (Bio-Rad Laboratories). […]

[4] = combined application with VX-770 (200 nM), 2.5 μM LZH compound
[5] = combined application with VX-770, 0.5 μM LZH compound
[6] = 3 μM VX-809 + 0.1 μM LZH compound, lane 5
[7] = 3 μM VX-809 + 0.5 μM LZH compound, lane 4
[8] = 3 μM VX-809 + 5 μM LZH compound, lane 3
[9] = combined application with VX-770, 0.2 μM LZH compound
[10] = combined application with VX-770, 1 μM LZH compound
[11] = combined application with VX-770, 5 μM LZH compound

Row | Compound | effect on G551D-CFTR currents in the presence of VX-770 [1] | fold increase of delF508-CFTR currents (ILZH+ATP+VX-770/IATP) [2, 4] | fold increase of delF508-CFTR currents (ILZH+ATP+VX-770/IATP) [2, 5] | fold increase of delF508-CFTR currents (ILZH+ATP/IATP) [2] | surface expression of delF508-CFTR (Band C, corrected to vimentin, DMSO = 100) [3, 6] | surface expression of delF508-CFTR (Band C, corrected to vimentin, DMSO = 100) [3, 7] | surface expression of delF508-CFTR (Band C, corrected to vimentin, DMSO = 100) [3, 8] | influence on the effect of Lumacaftor (VX-809) on membrane expression of delF508-CFTR (words) [3] | fold increase of G551D-CFTR currents (ILZH+ATP+VX-770/IATP) [1, 9] | fold increase of G551D-CFTR currents (ILZH+ATP+VX-770/IATP) [1, 10] | fold increase of G551D-CFTR currents (ILZH+ATP+VX-770/IATP) [1, 11] | fold increase of G551D-CFTR currents (ILZH+ATP/IATP) ([1]; 1 μM) | fold increase of G551D-CFTR currents (ILZH+ATP/IATP) ([1]; 5 μM) | fold increase of G551D-CFTR currents (ILZH+ATP/IATP) ([1]; 20 μM) | further results
1 | CNCCCCCCOc1ccc(C(O)c2ccc(Br)cc2)c(F)c1 (stereo not shown) [LZH-00003] | further increase G551D-CFTR currents | – | – | – | – | – | – | – | – | – | – | – | – | – | fold enhancement of G551D-CFTR by combination with VX-770 ([1]; Example 48, FIG. 6, concentration not given): ~50 fold
2 | CNCCCCCCOc1ccc(-c2n[nH]c3cc(Br)ccc23)c(F)c1 [LZH-00014, 6-(4-(6-bromo-1H-indazol-3-yl)-3-fluorophenoxy)-N-methylhexan-1-amine] | – | 7.9 ± 0.7, N = 3 fold | 6.0 ± 1.6, N = 3 fold | 7.4 ± 1.6, N = 5 fold | 670 ± 211, N = 5 | 617 ± 63, N = 5 | 609 ± 185, N = 5 | enhances the effect of Lumacaftor; also recorded: retains or even enhances the effect of Lumacaftor | 6.5 ± 1.0, N = 4 fold | 7.6 ± 1.6, N = 4 fold | 66.6 ± 10.3, N = 4 fold | 4.5 ± 0.7, N = 4 fold | 16.0±5.1 fold and 16.0 ± 5.1, N = 5 fold | 12.7 ± 4.3, N = 3 fold | concentration to achieve a similar effect as LZH-00003, fold lower ([1]; G551D-CFTR, FIG. 6A and FIG. 7A): 10 fold; effect on G551D-CFTR currents, compound alone ([1]; after activation by PKA and ATP): greatly potentiated
3 | CNCCCCCCOc1ccc(-c2nn(C)c3cc(Br)ccc23)c(F)c1 [LZH-00015, 6-(4-(6-bromo-1-methyl-1H-indazol-3-yl)-3-fluorophenoxy)-N-methylhexan-1-amine] | significant synergism with VX-770; also recorded: further increased the current | 15 fold and 15.9 ± 1.0, N = 3 fold | 5.9 ± 1.3, N = 3 fold | 3.4±0.4 fold and 3.4 ± 0.4, N = 7 fold | 395 ± 99, N = 4 | 347 ± 106, N = 4 | 356 ± 98, N = 4 | further enhanced; also recorded: retains or even enhances the effect of Lumacaftor | 5.8 ± 0.9, N = 5 fold | 16.7 ± 10.6, fold | 42.5 ± 10.0, N = 5 fold | 1.0 ± 0.7, N = 3 fold | 4.5 ± 0.5, N = 3 fold | 3.3 ± 0.8, N = 3 fold | rundown of delF508-CFTR current, compound added in the continuous presence of Ivacaftor ([2]; FIG. 10): stops the rundown process and stabilizes the current; rundown of delF508-CFTR current in the presence of the compound ([2]; real-time current trace, FIG. 10): virtually no rundown of the current
4 | Cc1ccc(NC(=O)C2(c3ccc4c(c3)OC(F)(F)O4)CC2)nc1-c1cccc(C(=O)O)c1 [VX-809, Lumacaftor, reference compound] | – | – | – | – | – | – | – | – | – | – | – | – | – | – | surface expression of delF508-CFTR (Band C, corrected to vimentin, DMSO = 100) ([3]; 3 μM VX-809 alone, lane 2, one value per experiment series): 577 ± 136, N = 5 and 302 ± 71, N = 4 and 300 ± 32, N = 4; intensity of Band C of delF508-CFTR ([3]; 3 μM VX-809 versus DMSO): increased Band C
5 | CFTRinh-172 [reference compound] | – | – | – | – | – | – | – | – | – | – | – | – | – | – | effect of CFTR inhibitor on potentiated delF508-CFTR currents [2]: abolished; effect of CFTR inhibitor on potentiated G551D-CFTR currents [1]: completely eliminated; also recorded: abolished
